In one assay the target is TAF1-BD1 (Homo sapiens, UniProt P21675). The assay is described as follows: TAF1-BD1 TR-FRET Binding Assay. Particulars: read-out: TAF1-BD1 HTRF IC50. Background: In TR-FRET formats the signal depends on donor and acceptor labels being close together.
The next assay has as its target TAF1-BD2 (Homo sapiens, UniProt P21675). Kind of assay: TAF1-BD2 TR-FRET Binding Assay. The conditions noted are these: read-out: TAF1-BD2 HTRF IC50.

As to `CCOC(=O)c1c(C)[nH]c2c(=O)n(C)cc(C#CC3(O)CCCC3)c12` [Example 20, ethyl 4-[2-(1-hydroxycyclopentyl)ethynyl]-2,6-dimethyl-7-oxo-1H-pyrrolo[2,3-c]pyridine-3-carboxylate], the results for the IC50 on TAF1-BD1 and on TAF1-BD2 were 282 nM and 21.9 nM, respectively.
Regarding `Cc1[nH]c2c(=O)n(C)cc(C#CC(C)(C)O)c2c1C(=O)OCc1ccccn1` [Example 115, 2-pyridylmethyl 4-(3-hydroxy-3-methyl-but-1-ynyl)-2,6-dimethyl-7-oxo-1H-pyrrolo[2,3-c]pyridine-3-carboxylate], the values for the IC50 at TAF1-BD1 and at TAF1-BD2 were 282 nM and 34.1 nM, respectively.
With `Cc1[nH]c2c(=O)n(C)cc(C#CC(C)(C)O)c2c1C1=NC(C(C)C)CO1` (centres unmarked) [Example 202, 4-(3-hydroxy-3-methyl-but-1-ynyl)-3-(4-isopropyl-4,5-dihydrooxazol-2-yl)-2,6-dimethyl-1H-pyrrolo[2,3-c]pyridin-7-one], the IC50 (as a rule, the concentration that inhibits the measured activity by half) on TAF1-BD1 came out at 1230 nM; on TAF1-BD2 it was 176 nM.
In the case of `CCOC(=O)c1c(C)[nH]c2c(=O)n(C)cc(C#CC(O)(c3cccc(C(N)=O)c3)C(F)(F)F)c12` (centres unmarked) [Example 197, ethyl 4-[3-(3-carbamoylphenyl)-4,4,4-trifluoro-3-hydroxy-but-1-ynyl]-2,6-dimethyl-7-oxo-1H-pyrrolo[2,3-c]pyridine-3-carboxylate], the results for the IC50 on TAF1-BD1 and at TAF1-BD2 were 185 nM and 34.1 nM, respectively.
For `CCOC(=O)c1c(C)[nH]c2c(=O)n(C)cc(C#CC(O)(c3cccc(Oc4ccccc4)c3)C(F)(F)F)c12` (centres unmarked) [Example 90, ethyl 2,6-dimethyl-7-oxo-4-[4,4,4-trifluoro-3-hydroxy-3-(3-phenoxyphenyl)but-1-ynyl]-1H-pyrrolo[2,3-c]pyridine-3-carboxylate], the IC50 at TAF1-BD1 amounted to 2280 nM; on TAF1-BD2, 699 nM.
The corresponding values for `C=CCCn1cc(C#CC(C)(C)O)c2c(C(=O)OCc3ccccc3C)c(C)[nH]c2c1=O` [Example 124, o-tolylmethyl 6-but-3-enyl-4-(3-hydroxy-3-methyl-but-1-ynyl)-2-methyl-7-oxo-1H-pyrrolo[2,3-c]pyridine-3-carboxylate] are more than 20000 nM and 59.7 nM.
In the same order, the values of `Cc1[nH]c2c(=O)n(C)cc(C#CC(O)(c3ccccc3)C(F)(F)F)c2c1-c1nnco1` (centres unmarked) [Example 183, 2,6-dimethyl-3-(1,3,4-oxadiazol-2-yl)-4-(4,4,4-trifluoro-3-hydroxy-3-phenyl-but-1-ynyl)-1H-pyrrolo[2,3-c]pyridin-7-one] are 598 nM and 50.2 nM.
In the same order, the values of `CCOC(=O)c1c(C)[nH]c2c(=O)n(C)cc(C#C[C@@](C)(O)c3nnc(C)o3)c12` [Example 64, ethyl 4-[(3R)-3-hydroxy-3-(5-methyl-1,3,4-oxadiazol-2-yl)but-1-ynyl]-2,6-dimethyl-7-oxo-1H-pyrrolo[2,3-c]pyridine-3-carboxylate] are 502 nM and 160 nM.
Turning to `CCCCC(C)(C)OC(=O)c1c(C)[nH]c2c(=O)n(C)cc(C#CC(C)(O)C3CC3)c12` (centres unmarked) [Example 137, 1,1-dimethylpentyl 4-(3-cyclopropyl-3-hydroxy-but-1-ynyl)-2,6-dimethyl-7-oxo-1H-pyrrolo[2,3-c]pyridine-3-carboxylate], the half-inhibitory concentration (IC50) was 481 nM at TAF1-BD1 and 79 nM on TAF1-BD2.
In the same order, the values of `CCOC(=O)c1c(C)[nH]c2c(=O)n(C)cc(C#CC(O)(c3ccccc3)C(F)(F)F)c12` (centres unmarked) [Example 73, ethyl 2,6-dimethyl-7-oxo-4-(4,4,4-trifluoro-3-hydroxy-3-phenyl-but-1-ynyl)-1H-pyrrolo[2,3-c]pyridine-3-carboxylate] are 287 nM and 69.5 nM.
On to `Cc1[nH]c2c(=O)n(C)cc(C#CC(C)(C)O)c2c1C(=O)OCC(C)(C)C` [Example 150, 2,2-dimethylpropyl 4-(3-hydroxy-3-methyl-but-1-ynyl)-2,6-dimethyl-7-oxo-1H-pyrrolo[2,3-c]pyridine-3-carboxylate], for which the IC50 at TAF1-BD1 was 93.6 nM; at TAF1-BD2 it was 30.4 nM.
Turning to `Cc1[nH]c2c(=O)n(C)cc(C#CC(C)(C)O)c2c1C(=O)OC(C)(C)C` [Example 133, tert-butyl 4-(3-hydroxy-3-methyl-but-1-ynyl)-2,6-dimethyl-7-oxo-1H-pyrrolo[2,3-c]pyridine-3-carboxylate], the IC50 stood at 308 nM at TAF1-BD1 and 31.1 nM on TAF1-BD2.
On to `CCOC(=O)c1c(C)[nH]c2c(=O)n(C)cc(C#CC(O)(c3cccc(-c4ccccc4OC)c3)C(F)(F)F)c12` (centres unmarked) [Example 101, ethyl 2,6-dimethyl-7-oxo-4-[4,4,4-trifluoro-3-hydroxy-3-[3-(2-methoxyphenyl)phenyl]but-1-ynyl]-1H-pyrrolo[2,3-c]pyridine-3-carboxylate], for which the figures for the IC50 on TAF1-BD1 and on TAF1-BD2 were 4330 nM and 608 nM, respectively.
As for `Cc1[nH]c2c(=O)n(C)cc(C#CC(O)(c3ccccc3)C(F)(F)F)c2c1C(=O)OC(C)(C)CC#N` (centres unmarked) [Example 136, (2-cyano-1,1-dimethyl-ethyl) 2,6-dimethyl-7-oxo-4-(4,4,4-trifluoro-3-hydroxy-3-phenyl-but-1-ynyl)-1H-pyrrolo[2,3-c]pyridine-3-carboxylate], the IC50 at TAF1-BD1 turned out to be 267 nM; at TAF1-BD2, 36.5 nM.
In the same order, the values of `CCOC(=O)c1c(C)[nH]c2c(=O)n(C)cc(C#CC3(O)CCC3)c12` [Example 21, ethyl 4-[2-(1-hydroxycyclobutyl)ethynyl]-2,6-dimethyl-7-oxo-1H-pyrrolo[2,3-c]pyridine-3-carboxylate] are 407 nM and 61.1 nM.
As to `CCOC(=O)c1c(C)[nH]c2c(=O)n(C)cc(C#CC(O)(C3CC3)C(F)(F)F)c12` (centres unmarked) [Example 45, ethyl 4-(3-cyclopropyl-4,4,4-trifluoro-3-hydroxy-but-1-ynyl)-2,6-dimethyl-7-oxo-1H-pyrrolo[2,3-c]pyridine-3-carboxylate], the IC50 on TAF1-BD1 was 271 nM; at TAF1-BD2, 74.7 nM.
Turning to `CCOC(=O)c1c(C)[nH]c2c(=O)n(C)cc(C#CC3(C)COC3)c12` [Example 13, ethyl 2,6-dimethyl-4-[2-(3-methyloxetan-3-yl)ethynyl]-7-oxo-1H-pyrrolo[2,3-c]pyridine-3-carboxylate], the values for the IC50 on TAF1-BD1 and on TAF1-BD2 were 434 nM and 379 nM, respectively.
Turning to `C=CCn1cc(C#CC(C)(C)O)c2c(C(=O)OCC)c(C)[nH]c2c1=O` [Example 51, ethyl 6-allyl-4-(3-hydroxy-3-methyl-but-1-ynyl)-2-methyl-7-oxo-1H-pyrrolo[2,3-c]pyridine-3-carboxylate], the IC50 at TAF1-BD1 was determined as 7200 nM; at TAF1-BD2, 227 nM.
With `CCOC(=O)c1c(C)[nH]c2c(=O)n(C)cc(C#CC(C)(C)C(=O)NC)c12` [Example 32, ethyl 4-[3,3-dimethyl-4-(methylamino)-4-oxo-but-1-ynyl]-2,6-dimethyl-7-oxo-1H-pyrrolo[2,3-c]pyridine-3-carboxylate], the IC50 on TAF1-BD1 is 802 nM; at TAF1-BD2, 1320 nM.
The corresponding values for `CC(=O)NCCC(C)(C)OC(=O)c1c(C)[nH]c2c(=O)n(C)cc(C#CC(C)(C)O)c12` [Example 164, (3-acetamido-1,1-dimethyl-propyl) 4-(3-hydroxy-3-methyl-but-1-ynyl)-2,6-dimethyl-7-oxo-1H-pyrrolo[2,3-c]pyridine-3-carboxylate] are 514 nM and 48.5 nM.
As to `CCOC(=O)c1c(C)[nH]c2c(=O)n(C)cc(C#CC(C)(C)C)c12` [Example 76, ethyl 4-(3,3-dimethylbut-1-ynyl)-2,6-dimethyl-7-oxo-1H-pyrrolo[2,3-c]pyridine-3-carboxylate], the values for the IC50 at TAF1-BD1 and on TAF1-BD2 were 561 nM and 777 nM, respectively.
With `Cc1[nH]c2c(=O)n(C)cc(C#CC(C)(O)C3CC3)c2c1-c1nnc(C(C)CN2CCOCC2)o1` (centres unmarked) [Example 176, 4-(3-cyclopropyl-3-hydroxy-but-1-ynyl)-2,6-dimethyl-3-[5-(1-methyl-2-morpholino-ethyl)-1,3,4-oxadiazol-2-yl]-1H-pyrrolo[2,3-c]pyridin-7-one], the IC50 at TAF1-BD1 was determined as 241 nM; on TAF1-BD2, 38.3 nM.
For the molecule `Cc1cccc(COC(=O)c2c(C)[nH]c3c(=O)n(C)cc(C#CC(C)(C)O)c23)c1` [Example 118, m-tolylmethyl 4-(3-hydroxy-3-methyl-but-1-ynyl)-2,6-dimethyl-7-oxo-1H-pyrrolo[2,3-c]pyridine-3-carboxylate], the IC50 at TAF1-BD1 is 167 nM; at TAF1-BD2 it was 38.9 nM.
Regarding `CCOC(=O)c1c(C)[nH]c2c(=O)n(C)cc(C#CC(C)(O)COc3ccccc3)c12` (centres unmarked) [Example 17, ethyl 4-(3-hydroxy-3-methyl-4-phenoxy-but-1-ynyl)-2,6-dimethyl-7-oxo-1H-pyrrolo[2,3-c]pyridine-3-carboxylate], the IC50 on TAF1-BD1 stood at 404 nM; at TAF1-BD2 it was 67.3 nM.
For the molecule `CCOC(=O)c1c(C)[nH]c2c(=O)n(C)cc(C#CC(O)(c3cccc(N)c3)C(F)(F)F)c12` (centres unmarked) [Example 2, ethyl 4-[3-(3-aminophenyl)-4,4,4-trifluoro-3-hydroxy-but-1-ynyl]-2,6-dimethyl-7-oxo-1H-pyrrolo[2,3-c]pyridine-3-carboxylate], the IC50 at TAF1-BD1 was 249 nM; on TAF1-BD2, 45.3 nM.
As to `Cc1[nH]c2c(=O)n(C)cc(C#CC(C)(O)C3CC3)c2c1-c1nnc(C(C)(C)O)o1` (centres unmarked) [Example 172, 4-(3-cyclopropyl-3-hydroxy-but-1-ynyl)-3-(5-(1-hydroxy-1-methyl-ethyl)-1,3,4-oxadiazol-2-yl)-2,6-dimethyl-1H-pyrrolo[2,3-c]pyridin-7-one], the IC50 on TAF1-BD1 turned out to be 451 nM; on TAF1-BD2 it was 110 nM.
In the same order, the values of `Cc1[nH]c2c(=O)n(C)cc(C#CC(C)(O)CC#N)c2c1C(=O)OC(C)C` (centres unmarked) [Example 156, isopropyl 4-(4-cyano-3-hydroxy-3-methyl-but-1-ynyl)-2,6-dimethyl-7-oxo-1H-pyrrolo[2,3-c]pyridine-3-carboxylate] are 276 nM and 106 nM.
In the case of `C=CCCn1cc(C#CC(C)(C)O)c2c(C(=O)OCC)c(C)[nH]c2c1=O` [Example 49, ethyl 6-but-3-enyl-4-(3-hydroxy-3-methyl-but-1-ynyl)-2-methyl-7-oxo-1H-pyrrolo[2,3-c]pyridine-3-carboxylate], the results for the IC50 on TAF1-BD1 and on TAF1-BD2 were 2850 nM and 116 nM, respectively.

These data come from patent publication US10202378B2, “Therapeutic compounds and uses thereof” (GENENTECH, INC., priority 2015, dated 2019).
